System: T47D human breast cancer cells
Assay: In vitro test: alkaline phosphatase assay in T47D human breast cancer cells
Type: cell-based
Conditions: alkaline phosphatase luminescence after 24 h with compound, test concentration not given
Description: T47D human breast cancer cells are grown in RPMI medium without phenol red (Invitrogen) containing 10% (v/v) heat-inactivated fetal bovine serum (FBS; Hyclone), 1% (v/v) penicillin-streptomycin (Invitrogen), 1% (w/v) glutamine (Invitrogen), and […] (Sigma). Incubation conditions are 37° C. in a humidified 5% (v/v) carbon dioxide environment. For assay, the cells are plated in 96-well tissue culture plates at 10,000 cells per well in assay medium [RPMI medium without phenol red (Invitrogen) containing 5% (v/v) charcoal-treated FBS (Hyclone) and 1% (v/v) penicillin-streptomycin (Invitrogen)]. Two days later, the medium is decanted and the compounds are added in a final concentration of 0.1% (v/v) dimethyl sulfoxide in fresh assay medium. Twenty-four hours later, an alkaline phosphatase assay is performed using a SEAP kit (BD Biosciences Clontech, Palo Alto, Calif.). Briefly, the medium is decanted and the cells are fixed for 30 minutes at room temperature with 5% (v/v) formalin (Sigma). The cells are washed once with room temperature Hank's buffered saline solution (Invitrogen). Equal volumes (0.05 mL) of 1× Dilution Buffer, Assay Buffer and 1:20 substrate/enhancer mixture are added. After 1-hour incubation at room temperature in the dark, the lysate is transferred to a white 96-well plate (Dynex) and luminescence is read using a LuminoSkan Ascent (Thermo Electron, Woburn, Mass.).

**Q.** `O=C(c1ccc(Cl)c(Cl)c1)c1cc(-c2ccncc2)c(N2CCC3(CC2)OCCO3)s1` [Example 1, (3,4-Dichloro-phenyl)-[5-(1,4-dioxa-8-aza-spiro[4.5]-dec-8-yl)-4-pyridin-4-yl-thiophen-2-yl]-methanon] was tested. Which “% inhibition” value did it give?
**A.** The value was 6%.

**Q.** `O=C(c1ccc(F)cc1)c1cc(-c2ccncc2)c(N2CCC3(CC2)OCCO3)s1` [Example 2, [5-(1,4-Dioxa-8-aza-spiro[4.5]-dec-8-yl)-4-pyridin-4-yl-thiophen-2-yl]-(4-fluoro-phenyl)-methanone] was tested. Which “% inhibition” value did it give?
**A.** The value was 15%.

**Q.** How did the “% inhibition” value turn out when `O=C(c1ccc(Cl)cc1)c1cc(-c2ccncc2)c(N2CCC3(CC2)OCCO3)s1` [Example 3, (4-Chloro-phenyl)-[5-(1 4-dioxa-8-aza-spiro[4.5]-dec-8-yl)-4-pyridin-4-yl-thiophen-2-yl]-methanone] was run?
**A.** Its value is 27%.

**Q.** With `O=C(c1ccc([N+](=O)[O-])cc1)c1cc(-c2ccncc2)c(N2CCC3(CC2)OCCO3)s1` [Example 4, [5-(1 4-Dioxa-8-aza-spiro[4.5]-dec-8-yl)-4-pyridin-4-yl-thiophen-2-yl]-(4-nitro-phenyl)-methanone] as the compound, how does the “% inhibition” value read?
**A.** The value was 0%.

**Q.** For `CCC(=O)c1cc(-c2ccncc2)c(N2CCC3(CC2)OCCO3)s1` [Example 5, 1-[5-(1,4-Dioxa-8-aza-spiro[4.5]-dec-8-yl)-4-pyridin-4-yl-thiophen-2-yl]-1-one], which “% inhibition” value is on record?
**A.** Its value is 0%.

**Q.** How did the “% inhibition” value turn out when `O=C(c1ccccc1)c1cc(-c2ccncc2)c(N2CCC3(CC2)OCCO3)s1` [Example 6, [5-(1,4-Dioxa-8-aza-spiro[4.5]-dec-8-yl)-4-pyridin-4-yl-thiophen-2-yl]-phenyl-methanone] was run?
**A.** The value was 34%.

**Q.** With `COc1cccc(C(=O)c2cc(-c3ccncc3)c(N3CCC4(CC3)OCCO4)s2)c1` [Example 7, [5-(1,4-Dioxa-8-aza-spiro[4.5]-dec-8-yl)-4-pyridin-4-yl-thiophen-2-yl-](3-methoxy-phenyl)-methanone] as the compound, how does the “% inhibition” value read?
**A.** The value was 42%.

**Q.** Which “% inhibition” value does the source give for `O=C(c1cc(C(F)(F)F)cc(C(F)(F)F)c1)c1cc(-c2ccncc2)c(N2CCC3(CC2)OCCO3)s1` [Example 8, (3,5-Bis-trifluoromethyl-phenyl)-[5-(1 4-dioxa-8-aza-spiro[4.5]-dec-8-yl)-4-pyridin-4-yl-thiophen-2-yl]-methanone] here?
**A.** The value was 0%.

**Q.** Which “% inhibition” value does the source give for `COc1ccccc1C(=O)c1cc(-c2ccncc2)c(N2CCC3(CC2)OCCO3)s1` [Example 9, [5-(1,4-Dioxa-8-aza-spiro[4.5]-dec-8-yl)-4-pyridin-4-yl-thiophen-2-yl]-(2-methoxy-phenyl)-methanone] here?
**A.** The value was 30%.

**Q.** With `O=C(c1cccc(Br)c1)c1cc(-c2ccncc2)c(N2CCC3(CC2)OCCO3)s1` [Example 10, (3-Bromo-phenyl)-[5-(1,4-dioxa-8-aza-spiro[4.5]-dec-8-yl)-4-pyridin-4-yl-thiophen-2-yl]-methanone] as the compound, how does the “% inhibition” value read?
**A.** The value was 42%.

**Q.** `O=C1CCN(c2sc(C(=O)c3ccccc3)cc2-c2ccncc2)CC1` [Example 11, 1-(5-Benzoyl-3-pyridin-4-yl-thiophen-2-yl)-piperidin-4-one] was tested. Which “% inhibition” value did it give?
**A.** The value was 35%.

**Q.** With `COc1cccc(C(=O)c2cc(-c3ccncc3)c(N3CCC(=O)CC3)s2)c1` [Example 12, 1-[5-(3-Methoxy-benzoyl)-3-pyridin-4-yl-thiophen-2-yl]-piperidin-4-one] as the compound, how does the “% inhibition” value read?
**A.** Its value is 24%.

**Q.** How did the “% inhibition” value turn out when `O=C1CCN(c2sc(C(=O)c3ccc(F)cc3)cc2-c2ccncc2)CC1` [Example 13, 1-[5-(4-Fluoro-benzoyl)-3-pyridin-4-yl-thiophen-2-yl]-piperidin-4-one] was run?
**A.** Its value is 46%.

**Q.** With `O=C1CCN(c2sc(C(=O)c3cc(C(F)(F)F)cc(C(F)(F)F)c3)cc2-c2ccncc2)CC1` [Example 14, 1-[5-(3,5-Bis-trifluoromethyl-benzoyl)-3-pyridin-4-yl-thiophen-2-yl]-piperidin-4-one] as the compound, how does the “% inhibition” value read?
**A.** Its value is 57%.

**Q.** For `COc1ccccc1C(=O)c1cc(-c2ccncc2)c(N2CCC(=O)CC2)s1` [Example 15, 1-[5-(2-Methoxy-benzoyl)-3-pyridin-4-yl-thiophen-2-yl]-piperidin-4-one], which “% inhibition” value is on record?
**A.** The value was 39%.

**Q.** How did the “% inhibition” value turn out when `O=C1CCN(c2sc(C(=O)c3ccc(Cl)cc3)cc2-c2ccncc2)CC1` [Example 16, 1-[5-(4-Chloro-benzoyl)-3-pyridin-4-yl-thiophen-2-yl]-piperidin-4-one] was run?
**A.** The value was 30%.

**Q.** How did the “% inhibition” value turn out when `O=C1CCN(c2sc(C(=O)c3ccc([N+](=O)[O-])cc3)cc2-c2ccncc2)CC1` [Example 17, 1-[5-(4-Nitro-benzoyl)-3-pyridin-4-yl-thiophen-2-yl]-piperidi n-4-one] was run?
**A.** The value was 30%.

**Q.** How did the “% inhibition” value turn out when `CCC(=O)c1cc(-c2ccncc2)c(N2CCC(=O)CC2)s1` [Example 18, 1-(5-Propionyl-3-pyridin-4-yl-thiophen-2-yl)-piperidin-4-one] was run?
**A.** Its value is 26%.

**Q.** `O=C1CCN(c2sc(C(=O)c3cccc([N+](=O)[O-])c3)cc2-c2ccncc2)CC1` [Example 19] was tested. Which “% inhibition” value did it give?
**A.** The value was 29%.

**Q.** For `O=C1CCN(c2sc(C(=O)c3cccc(Br)c3)cc2-c2ccncc2)CC1` [Example 20, 1-[5-(3-Bromo-benzoyl)-3-pyridin-4-yl-thiophen-2-yl]-piperidin-4-one], which “% inhibition” value is on record?
**A.** Its value is 23%.
